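Assay format: 96-well plates, 48-hour exposure. GI50 is the concentration that inhibits growth by half.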 The source made the active and inactive calls. Cut-off read from the data, not from the text of the source: active = GI50 up to about 1.1 µM and inactive = higher.
What was measured:
Experiment in all cases: DTP human tumour cell line panel, 48 h
RPMI-8226 = system: RPMI-8226
NCI-H226 = system: NCI-H226
HL-60 = system: HL-60
Malme-3M = system: Malme-3M
RXF 393 = system: RXF 393
EKVX = system: EKVX
DMS-273 = system: DMS-273
IGROV-1 = system: IGROV-1
CCRF-CEM = system: CCRF-CEM
LXFL 529 = system: LXFL 529
HCT-15 = system: HCT-15
UACC-62 = system: UACC-62
TK-10 = system: TK-10
ACHN = system: ACHN
OVCAR-3 = system: OVCAR-3
DMS-114 = system: DMS-114
SK-MEL-28 = system: SK-MEL-28
SNB-19 = system: SNB-19
SK-OV-3 = system: SK-OV-3
HOP-62 = system: HOP-62
UACC-257 = system: UACC-257
OVCAR-4 = system: OVCAR-4
LOX IMVI = system: LOX IMVI
XF498 = system: XF498
SF-268 = system: SF-268
SK-MEL-2 = system: SK-MEL-2
NCI-H460 = system: NCI-H460
HCT-116 = system: HCT-116
RXF 631 = system: RXF 631
MOLT-4 = system: MOLT-4
K562 = system: K562
NCI-H23 = system: NCI-H23
SR = system: SR
SK-MEL-5 = system: SK-MEL-5
COLO 205 = system: COLO 205
SF-295 = system: SF-295
SNB-75 = system: SNB-75
CAKI-1 = system: CAKI-1
OVCAR-5 = system: OVCAR-5
786-0 = system: 786-0
HOP-18 = system: HOP-18
NCI-H522 = system: NCI-H522
A549 = system: A549
UO-31 = system: UO-31
SF-539 = system: SF-539
SNB-78 = system: SNB-78
SN12C = system: SN12C
U-251 = system: U-251
DLD-1 = system: DLD-1
HT-29 = system: HT-29
KM-20L2 = system: KM-20L2
HOP-92 = system: HOP-92
OVCAR-8 = system: OVCAR-8
KM12 = system: KM12
M19-MEL = system: M19-MEL
M14 = system: M14
SW-620 = system: SW-620
A498 = system: A498
HCC 2998 = system: HCC 2998

Cc1ccc(SCC(=O)C2=C(O)CCCC2=O)cc1
GI50 (RPMI-8226): > 100 µM (inactive) | GI50 (NCI-H226): > 100 µM (inactive) | GI50 (HL-60): > 100 µM (inactive) | GI50 (Malme-3M): > 100 µM (inactive) | GI50 (RXF 393): > 100 µM (inactive) | GI50 (EKVX): > 100 µM (inactive) | GI50 (DMS-273): > 100 µM (inactive) | GI50 (IGROV-1): > 100 µM (inactive) | GI50 (CCRF-CEM): 40.6 µM (inactive) | GI50 (LXFL 529): > 100 µM (inactive) | GI50 (HCT-15): > 100 µM | GI50 (UACC-62): > 100 µM (inactive) | GI50 (TK-10): > 100 µM (inactive) | GI50 (ACHN): > 100 µM (inactive) | GI50 (OVCAR-3): > 100 µM (inactive) | GI50 (DMS-114): > 100 µM (inactive) | GI50 (SK-MEL-28): > 100 µM (inactive) | GI50 (SNB-19): > 100 µM (inactive) | GI50 (SK-OV-3): > 100 µM (inactive) | GI50 (HOP-62): > 100 µM (inactive) | GI50 (UACC-257): > 100 µM (inactive) | GI50 (OVCAR-4): > 100 µM (inactive) | GI50 (LOX IMVI): > 100 µM (inactive) | GI50 (XF498): > 100 µM (inactive) | GI50 (SF-268): > 100 µM (inactive) | GI50 (SK-MEL-2): > 100 µM (inactive) | GI50 (NCI-H460): > 100 µM (inactive) | GI50 (HCT-116): > 100 µM (inactive) | GI50 (RXF 631): > 100 µM (inactive) | GI50 (MOLT-4): > 100 µM (inactive) | GI50 (K562): > 100 µM (inactive) | GI50 (NCI-H23): > 100 µM (inactive) | GI50 (SR): > 100 µM (inactive) | GI50 (SK-MEL-5): > 100 µM (inactive) | GI50 (COLO 205): > 100 µM (inactive) | GI50 (SF-295): > 100 µM (inactive) | GI50 (SNB-75): > 100 µM (inactive) | GI50 (CAKI-1): > 100 µM (inactive) | GI50 (OVCAR-5): > 100 µM (inactive) | GI50 (786-0): > 100 µM (inactive) | GI50 (HOP-18): > 100 µM (inactive) | GI50 (NCI-H522): > 100 µM (inactive) | GI50 (A549): > 100 µM (inactive) | GI50 (UO-31): > 100 µM (inactive) | GI50 (SF-539): > 100 µM (inactive) | GI50 (SNB-78): > 100 µM (inactive) | GI50 (SN12C): > 100 µM (inactive) | GI50 (U-251): > 100 µM (inactive) | GI50 (DLD-1): > 100 µM (inactive) | GI50 (HT-29): > 100 µM (inactive) | GI50 (KM-20L2): > 100 µM (inactive) | GI50 (HOP-92): > 100 µM (inactive) | GI50 (OVCAR-8): > 100 µM (inactive) | GI50 (KM12): > 100 µM (inactive) | GI50 (M19-MEL): > 100 µM (inactive) | GI50 (M14): > 100 µM (inactive) | GI50 (SW-620): > 100 µM (inactive)

CCc1cccc(C)c1NC(=O)NS(=O)(=O)c1ccc(C)cc1
GI50 (RPMI-8226): > 100 µM (inactive) | GI50 (HL-60): > 100 µM (inactive) | GI50 (Malme-3M): > 100 µM (inactive) | GI50 (RXF 393): > 100 µM (inactive) | GI50 (EKVX): > 100 µM (inactive) | GI50 (DMS-273): > 100 µM (inactive) | GI50 (IGROV-1): > 100 µM (inactive) | GI50 (CCRF-CEM): > 100 µM (inactive) | GI50 (LXFL 529): > 100 µM (inactive) | GI50 (HCT-15): > 100 µM | GI50 (UACC-62): > 100 µM (inactive) | GI50 (TK-10): > 100 µM (inactive) | GI50 (ACHN): > 100 µM (inactive) | GI50 (OVCAR-3): > 100 µM (inactive) | GI50 (DMS-114): > 100 µM (inactive) | GI50 (SK-MEL-28): > 100 µM (inactive) | GI50 (SNB-19): > 100 µM (inactive) | GI50 (SK-OV-3): > 100 µM (inactive) | GI50 (HOP-62): > 100 µM (inactive) | GI50 (A498): > 100 µM (inactive) | GI50 (UACC-257): > 100 µM (inactive) | GI50 (OVCAR-4): > 100 µM (inactive) | GI50 (LOX IMVI): > 100 µM (inactive) | GI50 (XF498): > 100 µM (inactive) | GI50 (SF-268): > 100 µM (inactive) | GI50 (SK-MEL-2): > 100 µM (inactive) | GI50 (NCI-H460): > 100 µM (inactive) | GI50 (HCT-116): > 100 µM (inactive) | GI50 (RXF 631): > 100 µM (inactive) | GI50 (MOLT-4): > 100 µM (inactive) | GI50 (K562): > 100 µM (inactive) | GI50 (NCI-H23): > 100 µM (inactive) | GI50 (SK-MEL-5): > 100 µM (inactive) | GI50 (COLO 205): > 100 µM (inactive) | GI50 (SF-295): > 100 µM (inactive) | GI50 (SNB-75): 35.2 µM (inactive) | GI50 (CAKI-1): > 100 µM (inactive) | GI50 (OVCAR-5): > 100 µM (inactive) | GI50 (786-0): > 100 µM (inactive) | GI50 (HOP-18): > 100 µM (inactive) | GI50 (NCI-H522): > 100 µM (inactive) | GI50 (A549): > 100 µM (inactive) | GI50 (UO-31): > 100 µM (inactive) | GI50 (SF-539): > 100 µM (inactive) | GI50 (SNB-78): > 100 µM (inactive) | GI50 (SN12C): > 100 µM (inactive) | GI50 (U-251): > 100 µM (inactive) | GI50 (DLD-1): > 100 µM (inactive) | GI50 (HCC 2998): > 100 µM (inactive) | GI50 (KM-20L2): > 100 µM (inactive) | GI50 (HOP-92): > 100 µM (inactive) | GI50 (OVCAR-8): > 100 µM (inactive) | GI50 (KM12): > 100 µM (inactive) | GI50 (M19-MEL): > 100 µM (inactive) | GI50 (M14): > 100 µM (inactive) | GI50 (SW-620): > 100 µM (inactive)
